The numbers were not newly measured in patent US5656669A, “Restorative neuropharmacological agent for motor and speech disturbance” (Sumitomo Pharmaceuticals Co., Ltd., priority 1994, dated 1997), which cites them from elsewhere.

The conditions of series [1]: conventional pharmacological features; cited from earlier work.
For series [2], the system named is aromatic L-amino acid decarboxylase. Conditions: by aromatic L-amino acid decarboxylase; conventional pharmacological features; cited from earlier work.

Take `N[C@H](C(=O)O)[C@H](O)c1ccc(O)c(O)c1` [threo-DOPS]: the “passage through the blood-brain barrier” value in series [1] is given as “passes through the blood-brain barrier into the brain”. Moreover, in series [2], the conversion to norepinephrine entry is “directly converted to 1-norepinephrine”.
